Results reported in article PMC5047629, “Synthesis, Pharmacological Profile and Docking Studies of New Sulfonamides Designed as Phosphodiesterase-4 Inhibitors” (PLoS ONE, 2016).

How the values were obtained:
PDE3 = PDE3 activity inhibition; type: biochemical; details: 10 μM
guinea-pig trachea = test: Tracheal smooth muscle contraction in vitro induced by carbachol; details: 100 μM, S1A Fig
Procedure: Tracheas from guinea pigs were obtained and prepared as described previously. An initial tension of 1 g was applied to the tracheas for 60 min to obtain a constant resting tension. To confirm the viability of the preparation, the response to carbachol (2.5 μM) was recorded. After washout of carbachol and re-establishement of the baseline resting tension, tissues were preincubated with LASSBio-448 (100 μM) or vehicle (DMSO 0.1%) 15 min before re-exposed to cumulative addition of carbachol (10^−8–10^−4 M). The tracheal rings were pretreated 10 min before application of LASSBio-448 with 100 μM SQ22536 (adenylyl cyclase inhibitor). Stimulation-induced isometric contractile responses were measured with a force-displacement transducer (Ugo Basile, Comerio, Italy) and the readout used to assess contractility was obtained by isolated organ data acquisition software (Proto 5; Letica Scientific Instruments, Barcelona, Spain). Contractile responses were expressed as a percentage of the maximal contraction induced by 2.5 μM carbachol.

[1] = test system: guinea-pig tracheal smooth muscle cells; test: cAMP intracellular levels in airway smooth muscle cells (radioimmunoassay); type: cell-based; details: 100 μM, S1B Fig
Procedure: Intracellular cAMP concentrations were assayed in primary cultured guinea-pig tracheal smooth muscle cells as reported. Briefly, smooth muscle cells obtained from guinea pig tracheas were cultured in DMEM containing 10% fetal bovine serum, 100 units/ml of penicillin, […] of streptomycin and 2 mM of glutamine for 3 to 7 days. After the third cell splitting, 10^6 cells/well were grown in 24-well plates. At confluence, smooth muscle cells were washed with PBS and incubated with 100 μM LASSBio-448 or forskolin (adenylyl cyclase activator), in the presence or absence of 100 μM SQ22536 (adenylyl cyclase inhibitor) for 30 min. Lysed cells were collected and the intracellular cAMP was evaluated by means of radioimmunoassay (TRK 432–Cyclic AMP^[3H] Biotrak assay system—Amersham Pharmacia Biotech, Buckinghamshire, England) following manufacturer’s guidelines.

A/J mice [2] = test: Short-term murine model of asthma (OVA provocations at days 19 and 20), prophylactic treatment; type: in vivo; details: 100 mg/Kg oral, 1 h before each OVA challenge, 24 h after last provocation
Procedure: Sensitization was performed by means of a subcutaneous injection of 50 μg ovalbumin (OVA) (grade V; Sigma-Aldrich, St. Louis, MO) adsorbed to 5 mg of Al(OH)3 in 0.2 mL of sterile 0.9% NaCl (saline) at days 0 and 14. Intranasal OVA provocations (25 μg /25 μL saline) were performed at 19 and 20 days post-sensitization under isofluorane volatile anaesthesia (Cristalia, São Paulo, Brazil). Alternatively, sensitization as described above were done at days 0 and 7, while the OVA provocations were carried out at days 14, 21, 28 and 35 [39]. Negative control groups were represented by sensitized mice in which allergen was replaced by saline as a challenge. […]
The EPO activity present in lung tissue was determined with a colorimetric assay as described by Strath et al. (1985), with minor modifications. […] The optical density reading was performed on the SpectraMax M5 spectrophotometer (Molecular Devices) at a wavelength of 492 nm.
Twenty-four hours after the last challenge the animals were killed by an over dose of thiopental (200 mg/kg, i.p.) and bronchoalveolar lavage (BAL) was performed three times by intratracheal instillation of 500 μL of PBS and EDTA (10 mM) through a trachea cannula and gently aspirating the fluid. […] Total leukocyte numbers were measured in Neubauer chambers using light microcopy after diluting the samples in Türk solution (2% acetic acid). […]

PDE1B = target: T1, PDE1B (Homo sapiens, UniProt Q01064); test: PDE selectivity profile evaluated by CEREP; type: biochemical; details: 10 μM; data not shown
T1 construct: CEREP
T1 sequence (Q01064 whole entry): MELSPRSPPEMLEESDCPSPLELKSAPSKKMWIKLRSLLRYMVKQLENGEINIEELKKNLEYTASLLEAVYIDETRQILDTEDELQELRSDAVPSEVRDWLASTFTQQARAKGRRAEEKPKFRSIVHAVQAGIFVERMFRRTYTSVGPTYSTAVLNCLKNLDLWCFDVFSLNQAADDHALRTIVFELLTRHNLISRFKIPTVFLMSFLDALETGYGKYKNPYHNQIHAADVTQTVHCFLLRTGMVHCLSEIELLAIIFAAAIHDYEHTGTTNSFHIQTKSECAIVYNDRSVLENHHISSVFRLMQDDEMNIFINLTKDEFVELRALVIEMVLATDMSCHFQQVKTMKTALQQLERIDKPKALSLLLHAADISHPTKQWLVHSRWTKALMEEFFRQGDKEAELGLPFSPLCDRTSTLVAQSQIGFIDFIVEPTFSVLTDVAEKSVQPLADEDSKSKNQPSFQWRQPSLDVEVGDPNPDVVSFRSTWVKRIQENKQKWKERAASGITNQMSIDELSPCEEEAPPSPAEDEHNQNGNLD
Procedure: (§1) The selectivity profile of compound 6a (LASSBio-448) toward the human PDE1, PDE2, PDE5-PDE8, PDE10 and PDE11 was evaluated by CEREP.

PDE2A = target: T2, PDE2A (Homo sapiens, UniProt O00408); test: PDE selectivity profile evaluated by CEREP; type: biochemical; details: 10 μM; data not shown
T2 construct: CEREP
T2 sequence (O00408 whole entry): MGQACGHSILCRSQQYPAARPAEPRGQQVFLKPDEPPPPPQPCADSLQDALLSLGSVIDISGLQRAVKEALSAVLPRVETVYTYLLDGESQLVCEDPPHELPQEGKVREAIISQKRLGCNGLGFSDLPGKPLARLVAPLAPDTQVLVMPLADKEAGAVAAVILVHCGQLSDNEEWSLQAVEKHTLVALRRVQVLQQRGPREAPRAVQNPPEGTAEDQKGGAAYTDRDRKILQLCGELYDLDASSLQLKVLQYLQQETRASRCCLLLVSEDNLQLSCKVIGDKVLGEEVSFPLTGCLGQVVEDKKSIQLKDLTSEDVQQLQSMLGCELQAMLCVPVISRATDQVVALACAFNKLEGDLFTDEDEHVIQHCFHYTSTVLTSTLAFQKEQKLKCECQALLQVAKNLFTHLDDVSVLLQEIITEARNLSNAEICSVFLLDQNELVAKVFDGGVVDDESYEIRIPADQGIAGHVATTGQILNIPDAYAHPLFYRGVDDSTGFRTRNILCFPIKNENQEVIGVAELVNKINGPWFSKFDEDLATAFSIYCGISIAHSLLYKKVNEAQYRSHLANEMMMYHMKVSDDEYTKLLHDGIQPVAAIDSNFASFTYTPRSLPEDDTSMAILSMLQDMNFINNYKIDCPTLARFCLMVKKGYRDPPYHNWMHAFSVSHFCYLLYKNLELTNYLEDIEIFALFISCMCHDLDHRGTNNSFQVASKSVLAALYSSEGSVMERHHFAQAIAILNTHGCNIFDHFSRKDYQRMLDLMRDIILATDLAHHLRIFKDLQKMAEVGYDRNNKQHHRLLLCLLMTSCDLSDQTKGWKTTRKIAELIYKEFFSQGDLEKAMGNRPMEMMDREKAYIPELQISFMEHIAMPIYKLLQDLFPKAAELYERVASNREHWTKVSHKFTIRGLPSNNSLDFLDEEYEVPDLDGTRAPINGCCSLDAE
Procedure: as §1

A/J mice [3] = test: Duration of xylazine/ketamine anesthesia (behavioral correlate of emesis); type: in vivo
Procedure: This assessment was carried out as previously reported. […] The animals were placed in dorsal position and their spontaneous return to the prone position was used as an endpoint to determine anesthesia duration.

COc1ccc(CCNS(=O)(=O)c2cc3c(cc2C)OCO3)cc1OC [6a (LASSBio-448), N-(3,4-dimethoxyphenethyl)-6-methylbenzo[d][1, 3]dioxole-5-sulfonamide]
inhibition of PDE3 activity (PDE3): failed to inhibit
tracheal contraction induced by cumulative carbachol (guinea-pig trachea): inhibited
relaxant effect after pre-treatment with SQ22,536 (guinea-pig trachea; pre-treatment with 100 μM SQ22,536 (adenylyl cyclase inhibitor)): clearly abrogated
cAMP intracellular levels in cultured tracheal smooth muscle cells ([1]; levels comparable to forskolin): up-regulated
cAMP elevating effect after pre-treatment with SQ22,536 ([1]; pre-treatment with 100 μM SQ22,536): clearly abrogated
eosinophil levels in bronchoalveolar lavage fluid (A/J mice [2]; Fig 4A): clearly prevented the up-regulation
eosinophil levels in lung tissue homogenates (EPO colorimetric assay) (A/J mice [2]; Fig 4B): clearly prevented the up-regulation
inhibition of PDE1B (PDE1B): unable to inhibit
inhibition of PDE2A (PDE2A): unable to inhibit
reduction of sleep time (duration of xylazine/ketamine anesthesia) (A/J mice [3]; 11 μmol/Kg oral): 24.1%
reduction of sleep time (duration of xylazine/ketamine anesthesia) (A/J mice [3]; 27 μmol/Kg oral): 26.6%
reduction of sleep time (duration of xylazine/ketamine anesthesia) (A/J mice [3]; 80 μmol/Kg oral): 35.5%
fold less pro-emetic than rolipram (A/J mice [3]; vs rolipram): at least 7 fold
